Results on four compounds are retold here after paper PMC12056667 (Chemical Science, 2025).

One experiment addresses Tet(X4) (Escherichia coli, UniProt A0A3T0V9Y5). The experiment in a line: biochemical. The note with it: 20 μM tigecycline, 50 nM Tet(X4), 100 μM NADPH, 5 mM MgCl2, 1 μM FAD, 100 mM TAPS pH 8.5; read-out: IC50, UPLC assay. As for the experimental part:
We then tested the binding of reported type 1 TDase inhibitors to Tet(X4) (Fig. 3f, ESI Fig. S17 ^†).[33,38,39] […] We also developed a complementary endpoint activity assay where the turnover of tigecycline by Tet(X4) in a 96-well plate was quenched by addition of 1%v/v formic acid and analysed chromatographically. The peak integrals of tigecycline and its hydroxylated degradation product at 254 nm following UPLC analysis were measured to determine turnover (Fig. 5a).
[…] A 3-fold, 10-point dilution series of the substrates and inhibitors was made in DMSO with a top concentration of 10 mM, unless otherwise stated, and transferred to the enzyme solution using a CyBi-Well liquid-handling robot (CyBio), 1 μL per well. On each plate, a column of no enzyme negative controls and no inhibitor (DMSO only) positive controls were included. The plate was incubated at 30 °C for 15 min. A solution containing 100 mM TAPS (pH 8.5), 40 μM tigecycline and 200 μM NADPH was then dispensed, with 49 μL per well. The plate was incubated at 30 °C for 20 min at 600 rpm. 10 μL of 10%v/v formic acid solution was then dispensed into all wells. Samples were analysed using an ACQUITY H-Class PLUS UPLC instrument (Waters) equipped with a pre-equilibrated ACQUITY BEH C18 column ([…], […], Waters) using a gradient of 1–50%v/v acetonitrile with 0.1%v/v formic acid in water with 0.1%v/v formic acid over 1.83 minutes at a flow rate of 0.5 mL min^−1. Instrument control and data processing were performed using MassLynx V4.1 software. The peaks representing tigecycline and 11a-hydroxy-tigecycline were integrated, used to calculate % conversion and then normalised between positive and negative controls. The normalised % response was plotted as a function of log10[Inhibitor], and the IC50 determined as described above.

Experiment [1] deals with E. coli TOP10 containing plasmid pBAD-TOPO-Tet(X4). As to the kind of experiment: Broth microdilution MIC and checkerboard assay. It counts as cell-based, Escherichia coli. The note with it: for MIC: Escherichia coli; for Combination (antibiotic/inhibitor) MIC: inhibitor: inhibitor in combination with tigecycline; for Combination (antibiotic/inhibitor) MIC: inhibitor / Combination (antibiotic/inhibitor) MIC: antibiotic / Combination (Antibiotic/Inhibitor) MICs: antibiotic / Combination (Antibiotic/Inhibitor) MICs: inhibitor: lowest FICI; for Combination (antibiotic/inhibitor) MIC: antibiotic: tigecycline in combination with the inhibitor; for Tet(X) inhibitor MIC: alone; for reduction of the tigecycline MIC: at high concentrations of inhibitor. In short, it runs like this: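 E. coli TOP10 with pBAD-TOPO-Tet(X4), […], tested by CLSI broth microdilution in CAMHB, ~1.5 × 10^6 cfu mL^−1 inoculum, 37 °C, 18 h. Checkerboard of seven 2-fold inhibitor dilutions × ten dilutions; growth read visually ± resazurin; FICI = FICA + FICB.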
For orientation: Dilution methods test growth across graded concentrations, often in twofold steps.

The mark [2] stands for this setting: read-out: Tet(X) Inhibitor MIC, alone, without L-arabinose induction.
[3] abbreviates: read-out: Tet(X) inhibitor MIC, alone, induced with 0.2%w/v L-arabinose.
Setting [4] is: with tigecycline, 0.2%w/v L-arabinose.
The mark [5] stands for this setting: with tigecycline, without L-arabinose.
[6] abbreviates: induced with 0.2%w/v L-arabinose.
The mark [7] stands for this setting: with doxycycline, 0.2%w/v L-arabinose.
Where [8] appears, read: with doxycycline, no L-arabinose.
Setting [9] is: with tetracycline, 0.2%w/v L-arabinose.
The mark [10] stands for this setting: with tetracycline, no L-arabinose.

Where two headings read alike, the source gives them in different places. Bounds are passed on as bounds.

For the compound `O=C(c1ccc(OCCN2CCCCC2)cc1)c1c(-c2ccc(O)cc2)sc2cc(O)ccc12` [Raloxifene], the IC50 (usually the concentration needed to halve the response being measured) at Tet(X4) worked out at 8.3 ± 2.1 µM. For the same compound, the MIC in experiment [1] (setting [2]) and in experiment [1] (setting [3]) was more than 128 µg/mL each time. The results for the “Combination (antibiotic/inhibitor) MIC: inhibitor” value in experiment [1] (0.2%w/v L-arabinose) and in experiment [1] (without L-arabinose) were 128 µg/mL and more than 128 µg/mL, respectively. The “Combination (antibiotic/inhibitor) MIC: antibiotic” value was 0.5 µg/mL in experiment [1] (0.2%w/v L-arabinose) and 0.25 µg/mL in experiment [1] (without L-arabinose). For the same compound, the FICI was determined as 1.1 in experiment [1] (setting [4]) and 2 in experiment [1] (setting [5]). Further, the Outcome entry is “Indifferent (indifferent (0.5–4.0))” in experiment [1] (setting [4]) and “indifferent (indifferent (0.5-4.0))” in experiment [1] (setting [5]).

Turning to `[H]/N=C(/NCCCCC)N/N=C/c1c[nH]c2ccc(OC)cc12` [Tegaserod], the IC50 at Tet(X4) worked out at 25.9 ± 2.4 µM. Also, the MIC – broadly, the lowest concentration that inhibits growth of the organism – is 16 µg/mL in experiment [1] (read-out: Tet(X) Inhibitor MIC, alone, 0.2%w/v L-arabinose (Table S7)); 16 µg/mL in experiment [1] (setting [2]); 16 to 64 µg/mL in experiment [1] (setting [3]). In addition, the “Tet(X) inhibitor MIC” value in experiment [1] (setting [6]) is 16 µg/mL. In experiment [1] (0.2%w/v L-arabinose), the “reduction of the tigecycline MIC” value was 2–4 fold. The “Combination (Antibiotic/Inhibitor) MICs: antibiotic” value was 16 µg/mL in experiment [1] (doxycycline with tegaserod, 0.2%w/v L-arabinose); 8 µg/mL in experiment [1] (doxycycline with tegaserod, no L-arabinose); 64 µg/mL in experiment [1] (tetracycline with tegaserod, 0.2%w/v L-arabinose); 16 µg/mL in experiment [1] (tetracycline with tegaserod, no L-arabinose). In addition, the “Combination (antibiotic/inhibitor) MIC: inhibitor” value was determined as 8 µg/mL in experiment [1] (0.2%w/v L-arabinose) and 16 µg/mL in experiment [1] (without L-arabinose). For the same compound, the “Combination (Antibiotic/Inhibitor) MICs: inhibitor” value in experiment [1] (tegaserod with doxycycline, 0.2%w/v L-arabinose) amounted to 4 µg/mL; in experiment [1] (tegaserod with doxycycline, no L-arabinose), 0.5 µg/mL; in experiment [1] (tegaserod with tetracycline, 0.2%w/v L-arabinose) it was 8 µg/mL; in experiment [1] (tegaserod with tetracycline, no L-arabinose) it was 4 µg/mL. The “Combination (antibiotic/inhibitor) MIC: antibiotic” value was 1 µg/mL in experiment [1] (0.2%w/v L-arabinose) and 0.25 µg/mL in experiment [1] (without L-arabinose). For the same compound, the FICI in experiment [1] (setting [7]) is reported as 0.8; in experiment [1] (setting [8]), 1.0; in experiment [1] (setting [9]) it was 1.0; in experiment [1] (setting [10]) it was 2.0; in experiment [1] (setting [4]), 0.8; in experiment [1] (with tigecycline, 0.2%w/v L-arabinose, listed as tegaserod), 0.5-1. Moreover, the FICI in experiment [1] (setting [5]) came to 2. Also, the Outcome result was “indifferent (indifferent (0.5-4.0))” in experiment [1] (setting [7]); “indifferent (indifferent (0.5-4.0))” in experiment [1] (setting [8]); “indifferent (indifferent (0.5-4.0))” in experiment [1] (setting [9]); “indifferent (indifferent (0.5-4.0))” in experiment [1] (setting [10]); “Indifferent (indifferent (0.5–4.0))” in experiment [1] (setting [4]); “indifferent (indifferent (0.5-4.0))” in experiment [1] (setting [5]).

In the case of `Cc1c2c(c(O)c3c(O)cccc13)C(=O)[C@]1(O)C(=O)C(C(N)=O)=C(O)[C@@H](N(C)C)[C@@H]1C2` [Anhydrotetracycline], the IC50 at Tet(X4) stood at 2.6 ± 0.3 µM. In addition, the MIC in experiment [1] (setting [2]) and in experiment [1] (setting [3]) was 8 µg/mL throughout. Moreover, the “Combination (antibiotic/inhibitor) MIC: inhibitor” value is 2 µg/mL in experiment [1] (0.2%w/v L-arabinose) and 8 µg/mL in experiment [1] (without L-arabinose). The “Combination (antibiotic/inhibitor) MIC: antibiotic” value is 0.5 µg/mL in experiment [1] (0.2%w/v L-arabinose) and 0.25 µg/mL in experiment [1] (without L-arabinose). Also, the FICI in experiment [1] (setting [4]) was 0.4; in experiment [1] (setting [5]) it was 2. The Outcome entry in experiment [1] (setting [4]) is on record as “Synergy (synergy (≤0.5))”; in experiment [1] (setting [5]) it was “indifferent (indifferent (0.5-4.0))”.

Take `CN1CCN(CCCN2c3ccccc3Sc3ccc(C(F)(F)F)cc32)CC1` [Trifluoperazine]: the IC50 on Tet(X4) was determined as 83.8 ± 21.4 µM. The MIC in experiment [1] (setting [2]) was 64 µg/mL. Moreover, the “Tet(X) inhibitor MIC” value in experiment [1] (setting [6]) is 64 µg/mL; in experiment [1] (induced with 0.2%w/v L-arabinose, listed as trifluoperazine), 16 to 64 µg/mL. For the same compound, in experiment [1] (0.2%w/v L-arabinose), the “reduction of the tigecycline MIC” value is given as 2–4 fold. The figures for the “Combination (antibiotic/inhibitor) MIC: inhibitor” value in experiment [1] (0.2%w/v L-arabinose) and in experiment [1] (without L-arabinose) were 8 µg/mL and 32 µg/mL, respectively. The “Combination (antibiotic/inhibitor) MIC: antibiotic” value came to 2 µg/mL in experiment [1] (0.2%w/v L-arabinose) and 0.13 µg/mL in experiment [1] (without L-arabinose). The FICI in experiment [1] (setting [4]) is 0.6; in experiment [1] (with tigecycline, 0.2%w/v L-arabinose, listed as trifluoperazine), 0.5-1; in experiment [1] (setting [5]) it was 1. Also, the values for the Outcome result in experiment [1] (setting [4]) and in experiment [1] (setting [5]) were “Indifferent (indifferent (0.5–4.0))” and “indifferent (indifferent (0.5-4.0))”, respectively.
